Source: patent US20220152203A1, “BROAD-BASED THERAPEUTIC FOR INACTIVATING COVID-19 AND OTHER VIRAL PATHOGENS USING CHEMILUMINESCENCE-ACTIVATED COMPOUNDS ENCAPSULATED IN NANOPARTICLES” (priority 2020, published 2022)
≈ marks a conversion by molar mass, not a printed value. Where “and” joins values, the source holds several entries; their conditions need not be identical. Equal values may be shown once. Read-outs that look alike come from different tables or passages of the source.

How the values were obtained:
[1] = cited from earlier work
HIV = conditions: hypericin with “molecular flashlight”, cell culture in vitro; cited from earlier work
[2] = −20° C. in the absence of light and oxygen; cited from earlier work
HIV-1ΔtatΔrev = format: cell-based

SMILES	solubility ([1]; DMSO)	effect on host cells (HIV)	storage stability [2]	HIV p24 concentration as a function of time after infection (HIV-1ΔtatΔrev; day 0 (inoculum), hypericin exposed to the light (positive control)) [ng/mL]	HIV p24 concentration as a function of time after infection (HIV-1ΔtatΔrev; day 0 (inoculum), not exposed to light, hypericin 5 μmol, 2 h 37° C., replicates 1-3) [ng/mL]	HIV p24 concentration as a function of time after infection (HIV-1ΔtatΔrev; day 3, hypericin exposed to the light (positive control)) [ng/mL]	HIV p24 concentration as a function of time after infection (HIV-1ΔtatΔrev; day 3, not exposed to light, hypericin 5 μmol, 2 h 37° C., replicates 1-3) [ng/mL]	HIV p24 concentration as a function of time after infection (HIV-1ΔtatΔrev; day 6, hypericin exposed to the light (positive control)) [ng/mL]	HIV p24 concentration as a function of time after infection (HIV-1ΔtatΔrev; day 6, not exposed to light, hypericin 5 μmol, 2 h 37° C., replicates 1-3, listed as Hyp only)	HIV p24 concentration as a function of time after infection (HIV-1ΔtatΔrev; day 9, hypericin exposed to the light (positive control)) [ng/mL]	HIV p24 concentration as a function of time after infection (HIV-1ΔtatΔrev; day 9, not exposed to light, hypericin 5 μmol, 2 h 37° C., replicates 1-3, listed as Hyp only)	HIV p24 concentration as a function of time after infection (HIV-1ΔtatΔrev; day 13, hypericin exposed to the light (positive control)) [ng/mL]	HIV p24 concentration as a function of time after infection (HIV-1ΔtatΔrev; day 13, not exposed to light, hypericin 5 μmol, 2 h 37° C., replicates 1-3, listed as Hyp only)	HIV p24 concentration as a function of time after infection (HIV-1ΔtatΔrev; day 16, hypericin exposed to the light (positive control)) [ng/mL]	HIV p24 concentration as a function of time after infection (HIV-1ΔtatΔrev; day 16, not exposed to light, hypericin 5 μmol, 2 h 37° C., replicates 1-3, listed as Hyp only)	HIV p24 concentration as a function of time after infection (HIV-1ΔtatΔrev; day 20, hypericin exposed to the light (positive control)) [ng/mL]	HIV p24 concentration as a function of time after infection (HIV-1ΔtatΔrev; day 20, not exposed to light, hypericin 5 μmol, 2 h 37° C., replicates 1-3, listed as Hyp only)	solubility in DMSO ([1]; DMSO) [mg/mL]	solubility in methanol ([1]; methanol) [mg/mL]
Cc1cc(O)c2c(=O)c3c(O)cc(O)c4c5c(O)cc(O)c6c(=O)c7c(O)cc(C)c8c1c2c(c34)c(c78)c65 [hypericin, Hypericin]	soluble in DMSO	without harming these cells	stable	1	1	0.05	0.05	0.05	19.34 ng/mL and 12.13 ng/mL and 11 ng/mL	3	1,055 ng/ml and 831 ng/ml and 1,120 ng/ml	2.9	1,985 ng/ml and 3,501 ng/ml and 3,270 ng/ml	0.05	1,870 ng/ml and 1543 ng/ml and 923 ng/ml	6.6	1,763 ng/ml and 2,789 ng/ml and 2,775 ng/ml		
O=C(O)C1CSC(c2nc3ccc(O)cc3s2)=N1 [D-luciferin, 4,5-Dihydro-2-(6-hydroxy-2-benzothiazolyl)-4-thiazolecarboxylic acid]																		50 (≈ 178 mM)	10 (≈ 35.7 mM)
